In brackets after ≈: the same amount, converted by molar mass. Bridge positions count the residues as written; N and C are the ends. Square brackets hold non-standard residues; d marks the D form. Ends that are not written are not given here. Peptide text beside a SMILES is read from it. R8 = C=CCCCCCC[C@@](C)(N)C(=O)O; S5 = C=CCCC[C@](C)(N)C(=O)O; Nle = CCCC[C@H](N)C(=O)O
Tests used:
human red blood cells = type: cell-based; details: for % Hemolysis at 25 μg/ml: red cells of human, 1 h
Summary of the method: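 Hemolysis expressed as absorbance of released hemoglobin (570 nm) normalized between untreated and 1% Triton-X100 controls, with MHC taken as peptide concentration giving under 1% release. Peptide dilutions were exposed for 1 h at 37° C to a 1% (v/v) suspension of washed human red cells in PBS.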

S. marcescens = type: cell-based
Procedure: Antimicrobial Activity Assay:
The following microbroth dilution protocol was adapted to determine the minimum inhibitory concentration (MIC) of each peptide. First, Mueller-Hinton broth (MHB) was passed through an anion exchange column to remove polyanionic species and generate refined MHB. […] Briefly, bacterial cells was grown overnight in refined MHB at 37° C. and then diluted and allowed to grow again for several hours. Serial dilutions of peptide stocks in water (10 μl) were prepared using clear round-bottom polypropylene 96-well plates. Then 90 μl of bacteria in refined MHB was added to give a final inoculum of 5×10^5 CFU/ml. The plates were then covered with porous tape to reduce evaporation, and incubated for 20-24 hours at 37° C. The MIC is the minimum peptide concentration at which no visible growth was observed.

E. coli = type: cell-based, Escherichia coli
Summary of the method: (§1)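 Broth microdilution; anion-exchange-refined MHB; overnight culture at 37° C, diluted and regrown; inoculum 5×10^5 CFU/ml final; peptides serially diluted in water; 20-24 h, 37° C; MIC = lowest concentration without visible growth.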

B. cereus = type: cell-based, Bacillus cereus
Summary of the method: as §1

P. aeruginosa = type: cell-based, Pseudomonas aeruginosa
Summary of the method: as §1

S. aureus = type: cell-based, Staphylococcus aureus
Summary of the method: as §1

Compound	hemolytic activity (in words) (human red blood cells)	MIC S. marcescens (S. marcescens) [µg/mL]	MIC E. coli (E. coli) [µg/mL]	MIC B. cereus (B. cereus) [µg/mL]	MIC P. aeruginosa (P. aeruginosa) [µg/mL]	MIC S. aureus (S. aureus) [µg/mL]	% Hemolysis at 25 μg/ml (human red blood cells) [%]
CCCC[C@H](NC(=O)[C@@H](NC(=O)[C@H](CCC(=O)O)NC(=O)[C@H](C)NC(=O)[C@]1(C)CCCC=CCCCCCC[C@@](C)(NC(=O)[C@H](C)NC(=O)[C@H](C)NC(=O)[C@H](Cc2c[nH]cn2)NC(=O)[C@H](CC(C)C)NC(=O)[C@H](Cc2ccccc2)NC(=O)[C@H](CCCCN)NC(=O)CNC(=O)[C@@H](NC(=O)CN)[C@@H](C)CC)C(=O)N[C@@H](CCCCN)C(=O)N[C@@H](Cc2ccccc2)C(=O)N[C@@H](C)C(=O)N[C@@H](CCCCN)C(=O)N[C@@H](C)C(=O)N[C@@H](Cc2ccccc2)C(=O)N1)[C@@H](C)CC)C(=O)N[C@@H](CC(N)=O)C(=O)N[C@@H](CO)C(N)=O [MagStap 4] (H-GIGKFLHAA[R8]KFAKAF[S5]AEI[Nle]NS-NH2; staple 10-17; N-terminus assumed)	highest hemolytic activity	>50	12.5 (≈ 4.95 µM)	6.2 (≈ 2.46 µM)			
CCCC[C@H](NC(=O)[C@@H](NC(=O)[C@H](CCC(=O)O)NC(=O)[C@]1(C)CCCC=CCCCCCC[C@@](C)(NC(=O)[C@H](CCCCN)NC(=O)[C@H](C)NC(=O)[C@H](C)NC(=O)[C@H](Cc2c[nH]cn2)NC(=O)[C@H](CC(C)C)NC(=O)[C@H](Cc2ccccc2)NC(=O)[C@H](CCCCN)NC(=O)CNC(=O)[C@@H](NC(=O)CN)[C@@H](C)CC)C(=O)N[C@@H](Cc2ccccc2)C(=O)N[C@@H](C)C(=O)N[C@@H](CCCCN)C(=O)N[C@@H](C)C(=O)N[C@@H](Cc2ccccc2)C(=O)N[C@@H](C(C)C)C(=O)N1)[C@@H](C)CC)C(=O)N[C@@H](CC(N)=O)C(=O)N[C@@H](CO)C(N)=O [MagStap 5] (H-GIGKFLHAAK[R8]FAKAFV[S5]EI[Nle]NS-NH2; staple 11-18; N-terminus assumed)	lowest hemolytic activity	>50	12.5 (≈ 4.9 µM)	12.5 (≈ 4.9 µM)			
CCCC[C@H](NC(=O)[C@@H](NC(=O)[C@]1(C)CCCC=CCCCCCC[C@@](C)(NC(=O)[C@H](CCCCN)NC(=O)[C@H](CCCCN)NC(=O)[C@H](C)NC(=O)[C@H](C)NC(=O)[C@H](Cc2c[nH]cn2)NC(=O)[C@H](CC(C)C)NC(=O)[C@H](Cc2ccccc2)NC(=O)[C@H](CCCCN)NC(=O)CNC(=O)[C@@H](NC(=O)CN)[C@@H](C)CC)C(=O)N[C@@H](C)C(=O)N[C@@H](CCCCN)C(=O)N[C@@H](C)C(=O)N[C@@H](Cc2ccccc2)C(=O)N[C@@H](C(C)C)C(=O)N[C@@H](C)C(=O)N1)[C@@H](C)CC)C(=O)N[C@@H](CC(N)=O)C(=O)N[C@@H](CO)C(N)=O [MagStap 6] (H-GIGKFLHAAKK[R8]AKAFVA[S5]I[Nle]NS-NH2; staple 12-19; N-terminus assumed)		>50	3.1 (≈ 1.25 µM)	3.1 (≈ 1.25 µM)			
CCCC[C@H](NC(=O)[C@]1(C)CCCC=CCCCCCC[C@@](C)(NC(=O)[C@H](Cc2ccccc2)NC(=O)[C@H](CCCCN)NC(=O)[C@H](CCCCN)NC(=O)[C@H](C)NC(=O)[C@H](C)NC(=O)[C@H](Cc2c[nH]cn2)NC(=O)[C@H](CC(C)C)NC(=O)[C@H](Cc2ccccc2)NC(=O)[C@H](CCCCN)NC(=O)CNC(=O)[C@@H](NC(=O)CN)[C@@H](C)CC)C(=O)N[C@@H](CCCCN)C(=O)N[C@@H](C)C(=O)N[C@@H](Cc2ccccc2)C(=O)N[C@@H](C(C)C)C(=O)N[C@@H](C)C(=O)N[C@@H](CCC(=O)O)C(=O)N1)C(=O)N[C@@H](CC(N)=O)C(=O)N[C@@H](CO)C(N)=O [MagStap 7] (H-GIGKFLHAAKKF[R8]KAFVAE[S5][Nle]NS-NH2; staple 13-20; N-terminus assumed)		>50	6.2 (≈ 2.41 µM)	6.2 (≈ 2.41 µM)			
CC[C@H](C)[C@H](NC(=O)CN)C(=O)NCC(=O)N[C@@H](CCCCN)C(=O)N[C@@H](Cc1ccccc1)C(=O)N[C@@H](CC(C)C)C(=O)N[C@@H](CCCCN)C(=O)N[C@]1(C)CCCCCCC=CCCC[C@@](C)(C(=O)N[C@@H](Cc2ccccc2)C(=O)N[C@H](C(=O)N[C@@H](CCCCN)C(=O)N[C@H](C(=O)N[C@@H](CC(C)C)C(=O)N[C@@H](CCCCN)C(=O)N[C@@H](CCCCN)C(N)=O)[C@@H](C)CC)C(C)C)NC(=O)[C@H](CCCCN)NC(=O)CNC(=O)[C@H](Cc2ccccc2)NC(=O)[C@H](CCCCN)NC(=O)[C@H](CCCCN)NC(=O)[C@H](C)NC1=O [PexStap 2] (H-GIGKFLK[R8]AKKFGK[S5]FVKILKK-NH2; staple 8-15; N-terminus assumed)		>50	3.1 (≈ 1.21 µM)	3.1 (≈ 1.21 µM)	3.1 (≈ 1.21 µM)	3.1 (≈ 1.21 µM)	
CC[C@H](C)[C@H](NC(=O)CN)C(=O)NCC(=O)N[C@@H](CCCCN)C(=O)N[C@@H](Cc1ccccc1)C(=O)N[C@@H](CC(C)C)C(=O)N[C@@H](CCCCN)C(=O)N[C@@H](CCCCN)C(=O)N[C@@H](C)C(=O)N[C@@H](CCCCN)C(=O)N[C@@H](CCCCN)C(=O)N[C@]1(C)CCCCCCC=CCCC[C@@](C)(C(=O)N[C@@H](CC(C)C)C(=O)N[C@@H](CCCCN)C(=O)N[C@@H](CCCCN)C(N)=O)NC(=O)[C@H](CCCCN)NC(=O)[C@H](C(C)C)NC(=O)[C@H](Cc2ccccc2)NC(=O)[C@H](C)NC(=O)[C@H](CCCCN)NC(=O)CNC1=O [PexStap 6] (H-GIGKFLKKAKK[R8]GKAFVK[S5]LKK-NH2; staple 12-19; N-terminus assumed)		>50	3.1 (≈ 1.24 µM)	6.3 (≈ 2.51 µM)	1.6 (≈ 0.638 µM)	3.1 (≈ 1.24 µM)	
CC(C)C[C@H](NC(=O)[C@H](Cc1ccc(O)cc1)NC(=O)[C@H](Cc1c[nH]cn1)NC(=O)[C@@H](NC(=O)[C@H](CC(C)C)NC(=O)[C@]1(C)CCCC=CCCC[C@](C)(NC(=O)[C@H](Cc2c[nH]cn2)NC(=O)[C@H](CCCCN)NC(=O)CNC(=O)[C@@H](NC(=O)[C@H](Cc2c[nH]cn2)NC(=O)[C@H](C)NC(=O)[C@H](CCCCN)NC(=O)[C@H](CCCCN)NC(=O)[C@H](CCCCN)NC(=O)[C@]2(C)CCCC=CCCC[C@](C)(NC(=O)CN)C(=O)NCC(=O)N[C@@H](CO)C(=O)N[C@@H](Cc3ccccc3)C(=O)N2)C(C)C)C(=O)NCC(=O)N[C@@H](CCCCN)C(=O)N[C@@H](C)C(=O)N1)[C@@H](C)O)C(N)=O [Pleu(i + 4)1, 15(A9K)] (H-G[S5]GSF[S5]KKKAHVGKH[S5]GKA[S5]LTHYL-NH2; staple 2-6, 16-20; N-terminus assumed)			1.6	3.1	1.6	3.1	16.3
CC(C)C[C@H](NC(=O)[C@H](Cc1ccc(O)cc1)NC(=O)[C@H](Cc1c[nH]cn1)NC(=O)[C@@H](NC(=O)[C@H](CC(C)C)NC(=O)[C@]1(C)CCCC=CCCC[C@](C)(NC(=O)[C@H](Cc2c[nH]cn2)NC(=O)[C@H](CCCCN)NC(=O)CNC(=O)[C@@H](NC(=O)[C@H](Cc2c[nH]cn2)NC(=O)[C@H](C)NC(=O)[C@H](C)NC(=O)[C@H](CCCCN)NC(=O)[C@H](CCCCN)NC(=O)[C@]2(C)CCCC=CCCC[C@](C)(NC(=O)CN)C(=O)NCC(=O)N[C@@H](CO)C(=O)N[C@@H](Cc3ccccc3)C(=O)N2)C(C)C)C(=O)NCC(=O)N[C@@H](CCCCN)C(=O)N[C@@H](C)C(=O)N1)[C@@H](C)O)C(N)=O [Pleu(i + 4)1, 15] (H-G[S5]GSF[S5]KKAAHVGKH[S5]GKA[S5]LTHYL-NH2; staple 2-6, 16-20; N-terminus assumed)			1.6	3.1	1.6	1.6	88.2
GWGSFFKKAAHVGKHVGKAALTHYL-NH2 [Pleurocidin-NH2, reference compound]			3.1	6.2	3.1	6.2	0.5
